In one data set the test system is HCV replicon. Description: HCV replicon system in Huh7 cells, replicon RNA by Q-RT-PCR (HCV ΔCt, ΔΔCt). The format is cell-based, hepatitis C virus. The following applies: for Ave. ΔΔCt: HCV RNA ΔCt minus rRNA ΔCt; for Ave. HCV RNA ΔCt: HCV replicon in Huh7 cells; for average ΔΔCt: HCV RNA ΔCt minus rDNA ΔCt. On the technique in general: In antiviral work, replicon cells carry a viral genome segment that copies itself.

Data set [1] relates to rRNA (host RNA polymerase I product). Description: rRNA ΔCt in Huh7 replicon cells (effect on host RNA polymerases). The note with it: Table 24, average of n. From the text: In a typical setting, a compound might reduce both the host RNA polymerase activity and the replicon-encoded polymerase activity. Therefore, quantification of rRNA (or any other host RNA polymerase I product) or beta-actin mRNA (or any other host RNA polymerase II) and comparison with RNA levels of the no-drug control is a relative measurement of the effect of the test compound on host RNA polymerases.
With the availability of both the HCV ΔCt data and the rRNA ΔCt, a specificity parameter can be introduced. This parameter is obtained by subtracting both ΔCt values from each other.

The subject of the next data set is rDNA (host DNA). Description: rDNA ΔCt in Huh7 replicon cells (effect on cellular DNA polymerases). The note with it: Table 25, average of N. From the text: In another typical setting, a compound might reduce the host RNA polymerase activity, but not the host DNA polymerase activity. Therefore, quantification of rDNA or beta-actin DNA (or any other host DNA fragment) and comparison with DNA levels of the no-drug control is a relative measurement of the inhibitory effect of the test compound on cellular DNA polymerases.
With the availability of both the HCV ΔCt data and the rDNA ΔCt, a specificity parameter can be introduced. This parameter is obtained by subtracting both ΔCt values from each other.

The next data set concerns CEM cells. Description: cells. The format is cell-based, human. The note with it: for % inhibition at 100 μM, CEM Cells: four day incubation, MTT. The protocol: (§1) The cytotoxicity testing as performed herein is a standard technique. Briefly, cells are seeded in 96-well plates at various concentrations (dependent on cell type, duration of assay), typically at 5×10^3 cells per well, in the presence of increasing concentrations of the test compound (0, 1, 3, 10, 33, and 100 μM). After three (Vero cells), or four (CEM cells), or five (PBM cells) day-incubation, cell viability and mitochondrial activity are measured by adding the MTT-dye (Promega), followed by a 8 hours incubation. Afterwards the plates containing the dye are fixed by adding a stop-solution followed by another eight hour incubation. Finally, absorbance is read at 570 nm. Such methodologies are well described and available from the manufacturer (Promega).

A further data set concerns PBM cells. Description: cells. The format is cell-based, human. The note with it: for % inhibition at 100 μM, PBM cells: five day incubation, MTT. The protocol: as §1
For another data set, the system named is Vero cells. Kind of data set: cells. The format is cell-based. The note with it: for % inhibition at 100 μM, Vero Cells: three day incubation, MTT. As to the method: as §1

Each structure is given as a SMILES string.

The source of these data is patent US10100076B2, “Modified nucleosides for the treatment of viral infections and abnormal cellular proliferation” (priority 2000, dated 2018).

As to `Nc1nc(=O)c([C@@H]2O[C@H](CO)[C@@H](O)[C@H]2O)c[nH]1` [β-D-RB], the “Ave. ΔΔCt” value with HCV replicon (Table 24) was 1.12. For the same compound, the “Ave. HCV RNA ΔCt” value was 4.30 in the data set on HCV replicon (Table 24, average of n) and 4.00 in the data set with HCV replicon (Table 25, average of N). Moreover, the “average ΔΔCt” value with HCV replicon (Table 25) is listed as 2.74. Moreover, in data set [1], the “Ave. rRNA ΔCt” value turned out to be 3.18. Also, in the data set on rDNA (host DNA), the “Ave. rDNA ΔCt” value came out at 1.27.
For orientation: IC50 means the concentration needed to halve the response being measured. As a reminder, the % inhibition is the change of the read-out against control, counted positive when it falls. Consider `O=c1ccn([C@@H]2CC[C@H](CO)C2)c(=O)[nH]1` [β-L-GC], for which, in the data set with CEM cells, the IC50 is greater than 100 µM and the “% inhibition at 100 μM, CEM Cells” value was −1.2%. Moreover, in the data set with PBM cells, the IC50 was greater than 100 µM and the “% inhibition at 100 μM, PBM cells” value is listed as −53.2%. In the data set with Vero cells, the IC50 was greater than 100 µM and the “% inhibition at 100 μM, Vero Cells” value is reported as −13.4%.
Consider `Nc1nc(=O)n(C2CSC(CO)O2)cc1F` [β-L-JB], for which the “Ave. ΔΔCt” value in the data set on HCV replicon (Table 24) is −0.90. The “Ave. HCV RNA ΔCt” value with HCV replicon (Table 24, average of n) amounted to 3.65; in the data set on HCV replicon (Table 25, average of N), 3.65. Also, the “average ΔΔCt” value in the data set with HCV replicon (Table 25) came out at 2.45. Moreover, in data set [1], the “Ave. rRNA ΔCt” value is given as 4.55. The “Ave. rDNA ΔCt” value in the data set on rDNA (host DNA) worked out at 1.20.
As for `Nc1nc(=O)n([C@@H]2O[C@H](CO)[C@@H](O)[C@H]2O)cc1F` [β-D-AQ], the “Ave. ΔΔCt” value in the data set on HCV replicon (Table 24) came to 1.22. The “Ave. HCV RNA ΔCt” value with HCV replicon (Table 24, average of n) came to 4.45; in the data set on HCV replicon (Table 25, average of N), 4.75. In the data set on HCV replicon (Table 25), the “average ΔΔCt” value is given as 2.73. Besides, the “Ave. rRNA ΔCt” value in data set [1] is reported as 3.22. The “Ave. rDNA ΔCt” value in the data set with rDNA (host DNA) is reported as 1.78.
`Nc1nc(F)nc2c1ncn2[C@@H]1CS[C@H](CO)O1` [β-L-KC]: in the data set with HCV replicon (Table 24), the “Ave. ΔΔCt” value is on record as −0.16. The “Ave. HCV RNA ΔCt” value in the data set on HCV replicon (Table 24, average of n) stood at 1.19; with HCV replicon (Table 25, average of N) it was 2.73. Also, the “average ΔΔCt” value in the data set with HCV replicon (Table 25) is on record as 3.54. The “Ave. rRNA ΔCt” value in data set [1] is 1.35. Also, the “Ave. rDNA ΔCt” value in the data set on rDNA (host DNA) is recorded as −0.81.
Take `Cc1ccc(S(=O)(=O)O[C@@H]2[C@@H](O)[C@H](n3cc(I)c(N)nc3=O)O[C@@H]2CO)cc1` [β-D-BF]: in the data set with HCV replicon (Table 24), the “Ave. ΔΔCt” value was 1.68. The “Ave. HCV RNA ΔCt” value in the data set on HCV replicon (Table 24, average of n) came to 4.37; with HCV replicon (Table 25, average of N), 5.27. Moreover, the “average ΔΔCt” value in the data set with HCV replicon (Table 25) was 3.28. Besides, the “Ave. rRNA ΔCt” value in data set [1] is 2.69. For the same compound, the “Ave. rDNA ΔCt” value in the data set on rDNA (host DNA) was 2.04.
For the compound `O=c1[nH]c(=O)n([C@@H]2O[C@H](CO)[C@@H](O)[C@H]2O)cc1F` [β-D-CC], the “Ave. ΔΔCt” value with HCV replicon (Table 24) turned out to be 0.21. Further, the “Ave. HCV RNA ΔCt” value amounted to 5.04 in the data set with HCV replicon (Table 24, average of n) and 5.84 in the data set on HCV replicon (Table 25, average of N). Besides, the “average ΔΔCt” value in the data set on HCV replicon (Table 25) is 3.66. Moreover, the “Ave. rRNA ΔCt” value in data set [1] was 4.82. Also, the “Ave. rDNA ΔCt” value with rDNA (host DNA) worked out at 2.17.
`Nc1ccn([C@H]2C[C@@H](CO)[C@H](O)[C@@H]2O)c(=O)n1` [β-L-GD]: in the data set on CEM cells, the IC50 was greater than 100 µM and the “% inhibition at 100 μM, CEM Cells” value is −79.7%. Also, in the data set with PBM cells, the IC50 is greater than 100 µM and the “% inhibition at 100 μM, PBM cells” value was −12.9%. Moreover, in the data set with Vero cells, the IC50 was greater than 100 µM and the “% inhibition at 100 μM, Vero Cells” value amounted to 0.8%.
As to `Nc1cn([C@@H]2O[C@H](CO)[C@@H](O)[C@H]2O)c(=O)nc1N` [β-D-BJ], in the data set on HCV replicon (Table 24), the “Ave. ΔΔCt” value is 1.44. In addition, the “Ave. HCV RNA ΔCt” value with HCV replicon (Table 24, average of n) came to 5.06; in the data set on HCV replicon (Table 25, average of N), 4.34. The “average ΔΔCt” value in the data set on HCV replicon (Table 25) turned out to be 3.53. In addition, in data set [1], the “Ave. rRNA ΔCt” value stood at 3.62. Besides, the “Ave. rDNA ΔCt” value in the data set on rDNA (host DNA) is 0.81.
Regarding `Nc1ccn([C@@H]2C=C(CO)[C@@H](O)[C@H]2O)c(=O)n1` [β-D-HA], in the data set with HCV replicon (Table 24), the “Ave. ΔΔCt” value is on record as 1.68. Further, the “Ave. HCV RNA ΔCt” value in the data set on HCV replicon (Table 24, average of n) turned out to be 5.52; in the data set with HCV replicon (Table 25, average of N), 5.12. The “average ΔΔCt” value in the data set with HCV replicon (Table 25) came out at 3.16. Further, in data set [1], the “Ave. rRNA ΔCt” value amounted to 3.85. Besides, in the data set on rDNA (host DNA), the “Ave. rDNA ΔCt” value was 2.04.
As to `Nc1ncnc2c1ncn2[C@@H]1O[C@H](CO)[C@@H](F)[C@H]1O` [β-D-DD], the “Ave. ΔΔCt” value with HCV replicon (Table 24) is 1.61. Besides, the “Ave. HCV RNA ΔCt” value amounted to 6.60 in the data set with HCV replicon (Table 24, average of n) and 6.60 in the data set on HCV replicon (Table 25, average of N). For the same compound, the “average ΔΔCt” value with HCV replicon (Table 25) amounted to 3.30. Further, in data set [1], the “Ave. rRNA ΔCt” value came out at 4.99. Moreover, the “Ave. rDNA ΔCt” value with rDNA (host DNA) is given as 3.30.
As to `Nc1nc(=O)n(C2OC(CO)C(Br)C2O)cc1F` [β-D-AT], in the data set with HCV replicon (Table 24), the “Ave. ΔΔCt” value worked out at 0.64. Also, the “Ave. HCV RNA ΔCt” value with HCV replicon (Table 24, average of n) was 3.71; in the data set on HCV replicon (Table 25, average of N), 3.81. Further, the “average ΔΔCt” value in the data set with HCV replicon (Table 25) came out at 1.43. Also, in data set [1], the “Ave. rRNA ΔCt” value came to 3.07. Also, in the data set with rDNA (host DNA), the “Ave. rDNA ΔCt” value was 2.43.
